According to patent publication US6358706B1, “DNA encoding human alpha1G-C T-Type calcium channel” (Ortho-McNeil Pharmaceutical, Inc., priority 1999, dated 2002):
pEC50, pIC50, pKd: −log10 of the molar value. Where two headings read alike, the source gives them in different places.

Key:
[1] = molecular target: T1, human calcium channel alpha1G-c (Homo sapiens, UniProt O43497); assay: two-electrode voltage clamp of Xenopus oocytes expressing human calcium channel alpha1G-c; type: cell-based; conditions: for block of peak human alpha1G-c currents / effect on peak human alpha1G-c currents: 100 μM; for block of peak current: 200 μM, clamped at −100 mV between test pulses
T1 construct: first reported cloning of a full length DNA molecule encoding the; expressed in transfected cells; host or cells: Xenopus laevis oocytes injected with cRNA transcribed from pGEM HE
Description: Xenopus laevis oocytes were prepared and injected using standard methods previously described and known in the art (Fraser, S. P. et al. (1993)). Ovarian lobes from adult female Xenopus laevis (Nasco, Fort Atkinson, Wis.) were teased apart, rinsed several times in nominally Ca-free saline containing: 82.5 mM NaCl, 2.5 mM KCl, 1 mM MgCl2, 5 mM HEPES, adjusted to pH 7.0 with NaOH (OR-2), and gently shaken in OR-2 containing 0.2% collagenase Type 1 (ICN Biomedicals, Aurora, Ohio) for 2-5 hours. When approximately 50% of the follicular layers were removed, Stage V and VI oocytes were selected and rinsed in media consisting of 75% OR-2 and 25% ND-96. The ND-96 contained: 100 mM NaCl, 2 mM KCl, 1 mM MgCl2, 1.8 mM CaCl2, 5 mM HEPES, 2.5 mM Na pyruvate, gentamicin (50 ug/ml), adjusted to pH 7.0 with NaOH. […] The synthesized cRNA was precipitated with ammonium acetate and isopropanol, and resuspended in 50 μl nuclease-free water. cRNA was quantified using formaldehyde gels (1% agarose, 1×MOPS , 3% formaldehyde) against RNA markers (Gibco BRL, 0.24-9.5 Kb).
Oocytes were injected with 50 nl of the human calcium channel alpha1G-c cRNA (about 600 ng). Control oocytes were injected with 50 nl of water. Oocytes were incubated in ND-96 before analysis for expression of the human calcium channel alpha1G-c. Incubations and collagenase digestion were carried out at room temperature. Injected oocytes were maintained in 48 well cell culture clusters (Costar; Cambridge, Mass.) at 18° C. Whole cell agonist-induced currents were measured 3-6 days after injection with a conventional two-electrode voltage clamp (GeneClamp500, Axon Instruments, Foster City, Calif.) using standard methods previously described and known in the art (Dascal, N. (1987)). The microelectrodes were filled with 3 M KCl, which had resistances of 1 and 2 MΩ. Cells were continuously perfused with ND96 at 2-5 mi/min at room temperature unless indicated. In some experiments, cells were bathed in a 40 mM Ba saline containing (in mM): 40 BaCl2, 2 KCl, 36 TEA-Cl, 5 4-AP and 5 HEPES, pH 7.6. Membrane voltage was clamped at −100 mV unless indicated.
Oocytes were bathed in ND96,

[2] = system: T-type calcium channels from dorsal root ganglion neurons; conditions: neurons from one-day-old rats, cited from earlier work
L-type current = conditions: neurons from one-day-old rats; cited from earlier work
[3] = system: T type currents from guinea pig or rat ventrobasal thalamic neurons; parameters: maximal block: dose or concentration left out as unconfirmed; conditions: cited from earlier work
human alpha1H = molecular target: T2, human alpha1H (Homo sapiens, UniProt O95180); conditions: cited from earlier work; for pIC50: expressed in oocytes
T2 construct: host or cells: oocytes

[4] = system: LVCC in hippocampal CA3 neurons; conditions: 250 μM or 1 mM; cited from earlier work
T-type calcium channels = conditions: range over cell types; read-out: EC50's depending on the cell type; cited from earlier work
mouse alpha1G = conditions: cited from earlier work

T2 sequence (O95180 whole entry): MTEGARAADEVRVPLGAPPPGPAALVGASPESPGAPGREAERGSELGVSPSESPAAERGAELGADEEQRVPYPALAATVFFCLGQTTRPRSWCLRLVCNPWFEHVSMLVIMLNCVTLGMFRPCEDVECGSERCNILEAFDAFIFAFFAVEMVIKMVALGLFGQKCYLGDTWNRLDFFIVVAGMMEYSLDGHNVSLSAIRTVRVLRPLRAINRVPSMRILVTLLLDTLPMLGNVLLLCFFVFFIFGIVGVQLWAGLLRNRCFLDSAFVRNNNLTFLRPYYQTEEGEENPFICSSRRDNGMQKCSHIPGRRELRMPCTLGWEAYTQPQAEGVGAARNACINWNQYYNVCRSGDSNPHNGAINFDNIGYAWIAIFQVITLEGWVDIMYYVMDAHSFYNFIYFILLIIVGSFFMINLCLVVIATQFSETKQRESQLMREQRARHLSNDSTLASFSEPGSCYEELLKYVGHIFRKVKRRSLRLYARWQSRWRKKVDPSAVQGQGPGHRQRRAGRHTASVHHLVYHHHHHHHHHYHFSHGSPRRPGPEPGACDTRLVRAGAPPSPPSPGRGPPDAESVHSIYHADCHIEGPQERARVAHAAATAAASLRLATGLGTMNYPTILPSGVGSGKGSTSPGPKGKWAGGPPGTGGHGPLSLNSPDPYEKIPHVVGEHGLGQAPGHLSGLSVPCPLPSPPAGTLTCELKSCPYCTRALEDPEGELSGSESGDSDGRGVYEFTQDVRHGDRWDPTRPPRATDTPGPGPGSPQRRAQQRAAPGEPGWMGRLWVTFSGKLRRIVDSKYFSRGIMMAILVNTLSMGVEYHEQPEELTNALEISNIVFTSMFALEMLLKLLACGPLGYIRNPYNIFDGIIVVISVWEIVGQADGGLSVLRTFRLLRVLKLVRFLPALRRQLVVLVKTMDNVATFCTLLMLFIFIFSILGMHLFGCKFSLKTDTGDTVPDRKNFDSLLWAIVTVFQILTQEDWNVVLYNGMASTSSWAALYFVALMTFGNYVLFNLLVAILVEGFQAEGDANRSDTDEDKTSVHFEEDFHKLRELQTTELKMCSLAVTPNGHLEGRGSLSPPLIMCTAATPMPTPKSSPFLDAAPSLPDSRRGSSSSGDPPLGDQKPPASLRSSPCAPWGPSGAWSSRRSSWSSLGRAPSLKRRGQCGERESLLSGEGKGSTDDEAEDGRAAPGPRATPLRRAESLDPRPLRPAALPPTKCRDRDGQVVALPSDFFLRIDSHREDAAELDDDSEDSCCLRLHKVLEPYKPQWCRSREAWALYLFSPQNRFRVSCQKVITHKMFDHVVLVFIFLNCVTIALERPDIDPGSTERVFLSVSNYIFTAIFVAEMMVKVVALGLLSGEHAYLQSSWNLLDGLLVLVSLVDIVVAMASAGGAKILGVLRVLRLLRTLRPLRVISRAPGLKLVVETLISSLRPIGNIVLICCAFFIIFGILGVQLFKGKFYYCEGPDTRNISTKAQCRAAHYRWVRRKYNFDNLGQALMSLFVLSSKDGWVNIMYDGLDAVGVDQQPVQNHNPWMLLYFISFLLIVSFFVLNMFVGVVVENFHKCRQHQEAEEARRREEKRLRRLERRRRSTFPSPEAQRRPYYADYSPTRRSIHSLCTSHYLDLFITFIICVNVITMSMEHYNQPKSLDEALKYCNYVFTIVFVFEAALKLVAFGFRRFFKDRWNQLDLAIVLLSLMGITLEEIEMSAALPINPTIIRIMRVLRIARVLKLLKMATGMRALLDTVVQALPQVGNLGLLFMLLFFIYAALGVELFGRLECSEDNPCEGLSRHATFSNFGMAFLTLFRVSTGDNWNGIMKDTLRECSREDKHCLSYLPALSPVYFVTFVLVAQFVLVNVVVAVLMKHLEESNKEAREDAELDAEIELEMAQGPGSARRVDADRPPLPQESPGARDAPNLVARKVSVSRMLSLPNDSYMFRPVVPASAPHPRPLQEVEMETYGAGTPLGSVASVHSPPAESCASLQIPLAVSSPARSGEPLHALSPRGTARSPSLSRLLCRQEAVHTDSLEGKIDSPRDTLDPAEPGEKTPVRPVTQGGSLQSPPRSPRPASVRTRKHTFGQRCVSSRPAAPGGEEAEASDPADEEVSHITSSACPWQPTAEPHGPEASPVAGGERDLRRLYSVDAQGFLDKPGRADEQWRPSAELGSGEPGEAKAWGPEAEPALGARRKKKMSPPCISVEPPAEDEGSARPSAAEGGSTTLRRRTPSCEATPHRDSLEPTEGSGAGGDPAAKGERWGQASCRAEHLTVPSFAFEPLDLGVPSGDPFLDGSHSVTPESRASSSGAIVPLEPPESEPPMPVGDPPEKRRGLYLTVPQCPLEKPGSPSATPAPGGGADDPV
T1 sequence (O43497 1-2273 isoform O43497-6): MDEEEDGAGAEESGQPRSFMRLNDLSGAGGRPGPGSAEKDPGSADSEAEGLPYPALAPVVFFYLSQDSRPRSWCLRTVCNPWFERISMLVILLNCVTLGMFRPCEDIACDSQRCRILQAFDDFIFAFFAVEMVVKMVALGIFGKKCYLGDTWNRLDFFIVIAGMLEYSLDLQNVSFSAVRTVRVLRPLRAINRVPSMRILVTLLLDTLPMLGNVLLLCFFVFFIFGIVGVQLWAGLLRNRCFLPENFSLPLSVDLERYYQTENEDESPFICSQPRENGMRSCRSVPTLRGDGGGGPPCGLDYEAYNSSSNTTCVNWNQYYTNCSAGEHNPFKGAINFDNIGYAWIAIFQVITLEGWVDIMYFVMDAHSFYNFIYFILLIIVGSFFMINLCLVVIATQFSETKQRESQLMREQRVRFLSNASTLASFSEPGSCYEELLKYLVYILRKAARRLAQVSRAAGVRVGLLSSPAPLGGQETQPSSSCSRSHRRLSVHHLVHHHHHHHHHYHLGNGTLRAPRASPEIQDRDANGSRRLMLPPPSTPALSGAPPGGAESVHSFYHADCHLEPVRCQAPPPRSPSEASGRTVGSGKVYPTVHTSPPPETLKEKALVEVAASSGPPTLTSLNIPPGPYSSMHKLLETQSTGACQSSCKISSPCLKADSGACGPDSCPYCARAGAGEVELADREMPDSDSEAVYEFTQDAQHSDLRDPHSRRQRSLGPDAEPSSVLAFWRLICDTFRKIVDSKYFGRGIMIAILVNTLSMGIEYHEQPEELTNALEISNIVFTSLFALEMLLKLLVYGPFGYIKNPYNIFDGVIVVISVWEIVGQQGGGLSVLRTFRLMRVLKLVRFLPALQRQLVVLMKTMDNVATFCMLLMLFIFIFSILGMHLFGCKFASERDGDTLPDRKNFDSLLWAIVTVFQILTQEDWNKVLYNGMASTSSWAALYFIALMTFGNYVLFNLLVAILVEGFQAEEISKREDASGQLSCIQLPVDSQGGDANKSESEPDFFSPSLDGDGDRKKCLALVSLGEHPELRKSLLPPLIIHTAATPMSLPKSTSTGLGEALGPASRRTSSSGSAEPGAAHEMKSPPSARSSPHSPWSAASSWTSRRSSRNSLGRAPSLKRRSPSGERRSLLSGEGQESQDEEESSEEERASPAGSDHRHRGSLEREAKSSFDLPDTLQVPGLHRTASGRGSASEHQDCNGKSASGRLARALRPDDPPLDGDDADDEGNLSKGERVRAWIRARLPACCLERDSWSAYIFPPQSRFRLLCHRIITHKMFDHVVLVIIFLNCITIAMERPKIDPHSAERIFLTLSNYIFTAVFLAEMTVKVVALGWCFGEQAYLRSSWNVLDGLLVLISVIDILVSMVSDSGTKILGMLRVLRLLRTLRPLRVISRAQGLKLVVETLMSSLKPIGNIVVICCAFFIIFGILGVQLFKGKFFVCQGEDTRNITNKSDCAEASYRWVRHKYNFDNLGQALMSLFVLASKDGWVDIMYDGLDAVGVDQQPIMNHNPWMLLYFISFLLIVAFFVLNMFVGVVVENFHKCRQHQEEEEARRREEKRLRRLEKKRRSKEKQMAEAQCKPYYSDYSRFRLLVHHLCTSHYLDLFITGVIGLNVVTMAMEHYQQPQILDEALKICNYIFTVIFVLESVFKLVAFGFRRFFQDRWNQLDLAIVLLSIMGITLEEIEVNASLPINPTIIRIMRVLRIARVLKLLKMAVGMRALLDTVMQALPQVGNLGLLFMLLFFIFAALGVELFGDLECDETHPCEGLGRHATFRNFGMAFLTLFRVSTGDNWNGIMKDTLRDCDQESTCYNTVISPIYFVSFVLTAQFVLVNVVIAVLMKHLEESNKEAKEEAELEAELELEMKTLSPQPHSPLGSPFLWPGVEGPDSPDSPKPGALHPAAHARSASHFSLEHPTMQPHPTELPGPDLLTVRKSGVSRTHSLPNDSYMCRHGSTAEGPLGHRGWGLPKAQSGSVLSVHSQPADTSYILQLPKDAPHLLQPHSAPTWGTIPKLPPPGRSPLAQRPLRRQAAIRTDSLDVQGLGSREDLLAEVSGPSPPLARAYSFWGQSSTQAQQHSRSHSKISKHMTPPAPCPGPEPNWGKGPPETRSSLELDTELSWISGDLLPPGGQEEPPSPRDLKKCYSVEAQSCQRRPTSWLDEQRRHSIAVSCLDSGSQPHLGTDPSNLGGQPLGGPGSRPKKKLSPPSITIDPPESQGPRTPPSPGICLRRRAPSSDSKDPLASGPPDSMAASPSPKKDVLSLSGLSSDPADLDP

SMILES: O=C(O)c1cccnc1Nc1cccc(C(F)(F)F)c1 [niflumic acid]
- block of peak human alpha1G-c currents [1]: 0+/−2%
- effect on peak human alpha1G-c currents [1]: no effect

SMILES: O=C(O)c1cc([N+](=O)[O-])ccc1NCCCc1ccccc1 [NPPB, 5-Nitro-2-(3-phenylpropylamino)benzoic acid]
- block of human alpha1G-c currents ([1]; 20 μM): 22+/−6%
- block of peak human alpha1G-c currents [1]: 55+/−7%
- block of peak current [1]: 89+/−7%
- sensitivity of human alpha1G-c to block ([1]; expressed in oocytes): blocked halpha1G-c currents

SMILES: [Cd+2] [Cd^2+]
- block of peak human alpha1G-c currents [1]: 44+/−9%

SMILES: O=S(=O)(O)c1cc(N=C=S)ccc1C=Cc1ccc(N=C=S)cc1S(=O)(=O)O [DIDS, 4,4′-diisothiocyanatostilbene-2.2′-disulfonic acid]
- block of peak human alpha1G-c currents [1]: 16+/−13%
- effect on peak human alpha1G-c currents [1]: no effect

SMILES: CCC1(C)CC(=O)NC1=O (stereo not shown) [ethosuximide]
- maximal block [2]: 100%
- pKd ([2]; read-out: Kd for T-current): 5.15
- reversible block of peak currents ([1]; 600 μM, −100 mV between voltage pulses, ND96 and Ba2+ salines similar): 26+/−−3%
- sensitivity of human alpha1G-c to block ([1]; expressed in oocytes): sensitive
- pKd (L-type current): 4.82
- effect on T-currents ([3]; in 25% of the TCs tested): no effect
- block of human alpha1H currents (human alpha1H; 300 μM): ~7%
- sensitivity (human alpha1H): insensitive
- sensitivity of all components of the LVCC [4]: insensitive

SMILES: O=C(O)c1c2ccccc2cc2ccccc12 [9-AC, anthracene-9-carboxylic acid]
- block of peak human alpha1G-c currents [1]: 30+/−3%

SMILES: N=C(N)NC(=O)c1nc(Cl)c(N)nc1N [amiloride]
- block of peak currents [1]: 23+/−4%
- sensitivity of human alpha1G-c to block [1]: sensitive
- pEC50 (T-type calcium channels): ≤ 4.30
- pIC50 (human alpha1H): ~4.70

SMILES: COCC(=O)O[C@]1(CCN(C)CCCc2nc3ccccc3[nH]2)CCc2cc(F)ccc2[C@@H]1C(C)C [mibefradil, (1S,2S)-2-[2-[[3-(1H-benzimidazol-2-yl)propyl]methyl-amino]ethyl]-6-fluoro-1-isopropyl-1,2,3,4-tetrahydronaphthalen-2-yl methoxyacetate]
- maximal block [3]: ~40%
- pIC50 ([3]; majority of T type currents): ~3.30
- pIC50 (mouse alpha1G; most prominent (low affinity) site): ~6.40

SMILES: [Cl][Ni][Cl] [NiCl2]
- block of peak current [1]: 25+/−6%
- current blocked relative to 200 μM ([1]; 1 mM, same cell): about twice the current blocked by 200 μM Ni^2+
- sensitivity of human alpha1G-c to block ([1]; expressed in oocytes): relatively insensitive
- pIC50 (human alpha1H): ~5.22
- sensitivity (mouse alpha1G; as opposed to other T-type channels): very low sensitivity
